Test results published in patent publication US5234925A (Dana-Farber Cancer Institute, Inc., priority 1991, dated 1993).
Where two headings read alike, the source gives them in different places.

Legend:
L1210 cells [1] = conditions: cited from earlier work; for IC50: 48 h, RPMI 1640 with 10% nondialyzed fetal calf serum
Mouse liver FPGS [2] = biological target: T1, Mouse liver FPGS (Mus musculus, UniProt P48760); conditions: relative to folic acid (1.0); cited from earlier work
T1 sequence (P48760 43-587): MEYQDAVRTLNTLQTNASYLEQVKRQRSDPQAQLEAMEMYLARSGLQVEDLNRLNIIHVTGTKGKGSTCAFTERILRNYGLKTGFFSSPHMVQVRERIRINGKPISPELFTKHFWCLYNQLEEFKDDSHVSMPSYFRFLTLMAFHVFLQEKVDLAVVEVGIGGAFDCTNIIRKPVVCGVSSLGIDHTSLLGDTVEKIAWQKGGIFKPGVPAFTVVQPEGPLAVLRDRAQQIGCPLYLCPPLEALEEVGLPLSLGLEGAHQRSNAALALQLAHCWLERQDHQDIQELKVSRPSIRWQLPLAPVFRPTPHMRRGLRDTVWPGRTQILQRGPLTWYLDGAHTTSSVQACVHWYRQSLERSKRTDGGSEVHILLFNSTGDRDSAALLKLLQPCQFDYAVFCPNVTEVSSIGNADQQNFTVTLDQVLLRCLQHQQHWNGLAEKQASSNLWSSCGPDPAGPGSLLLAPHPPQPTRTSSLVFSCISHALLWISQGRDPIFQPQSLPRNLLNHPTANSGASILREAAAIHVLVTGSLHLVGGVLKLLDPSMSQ

[3] = physiologic pH; cited from earlier work
[4] = clinical trials; cited from earlier work
[5] = compared with reduced folates and MTX; cited from earlier work
L1210 TS [6] = biological target: T2, L1210 TS (Mus musculus, UniProt P07607); conditions: cited from earlier work
T2 construct: purified TS from L1210 murine leukemic cells; endogenous in cells; host or cells: L1210 murine leukemic cells (enzyme purified from them)
T2 sequence (P07607 whole entry): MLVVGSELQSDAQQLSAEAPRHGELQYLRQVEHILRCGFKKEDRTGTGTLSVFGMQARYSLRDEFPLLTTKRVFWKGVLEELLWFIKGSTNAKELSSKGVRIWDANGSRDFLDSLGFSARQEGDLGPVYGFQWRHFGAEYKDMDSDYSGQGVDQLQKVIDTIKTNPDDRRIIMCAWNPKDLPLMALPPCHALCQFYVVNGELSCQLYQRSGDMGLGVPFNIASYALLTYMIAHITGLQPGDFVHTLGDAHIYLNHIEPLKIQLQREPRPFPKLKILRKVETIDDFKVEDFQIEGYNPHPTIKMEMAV

L1210 cells [7] = test: Inhibition of growth of L1210 cells in culture; type: cell-based, murine; conditions: for IC50: Mus musculus, L1210
Description: ^d Cells were incubated in RPMI 1640 medium supplemented with 10%
nondialyzed fetal calf serum, and were counted after 48 h of drug
^e The IC50 for cells grown in the presence of 10 μM dThd
increased only to 0.84 μM.
It was therefore of interest to determine whether 2-aza analogues such as 10 also require both dThd and HX for complete protection from their growth inhibitory effect.

Mouse liver FPGS [8] = biological target: T1, Mouse liver FPGS; test: Substrate activity for partially purified FPGS from mouse liver; type: biochemical
From the text: ^c Substrate activity for partially purified FPGS from mouse liver wa
determined as described previously (Moran et al., Mol. Pharmacol. 27:156,
1985), with relative Vmax and k' values expressed in comparison with […]

L1210 TS [9] = biological target: T2, L1210 TS; test: Inhibition of purified TS from L1210 murine leukemic cells (3H release assay); type: biochemical
Description: ^b Inhibition of purified TS from L1210 cells was determined by the
^3 Hrelease assay method as described previously (Sikora et al.)

Nc1nc2ccc(CNc3ccc(C(=O)N[C@@H](CCC(=O)O)C(=O)O)cc3)cc2c(=O)[nH]1 [Compound 1, 5,8-Dideazafolic Acid]
IC50 (L1210 cells [1]): 2700 nM
Vmax (rel), Mouse liver FPGS (Mouse liver FPGS [2]): 1.3
k'(rel), Mouse liver FPGS (Mouse liver FPGS [2]): 29

C#CCN(Cc1ccc2nc(N)[nH]c(=O)c2c1)c1ccc(C(=O)N[C@@H](CCC(=O)O)C(=O)O)cc1 [Compound 2, N^10 -Propargyl-5,8-dideazafolic Acid]
reversal of inhibitory effect on growth of L1210 cells by thymidine plus folinic acid (L1210 cells [1]; 5 μM dThd and 5 μM folinic acid): restored to normal levels
reversal of inhibitory effect on growth of L1210 cells by thymidine (L1210 cells [1]; 10 μM thymidine alone): not fully reversed
reversal of inhibitory effect on growth of L1210 cells by thymidine plus hypoxanthine (L1210 cells [1]; 10 μM thymidine and 50 μM hypoxanthine): restored to normal levels
IC50 (L1210 cells [1]): 3500 nM
solubility [3]: low solubility at physiologic pH
toxicities in clinical use [4]: hepatic and renal toxicities
Vmax (rel), Mouse liver FPGS (Mouse liver FPGS [2]): 0.88
k'(rel), Mouse liver FPGS (Mouse liver FPGS [2]): 2.3
transport mechanism of cell entry [5]: distinct from that of reduced folates and MTX

O=C(O)CC[C@H](NC(=O)c1ccc(NCc2ccc3nc[nH]c(=O)c3c2)cc1)C(=O)O [Compound 3, 2-Desamino-5,8-dideazafolic Acid]
IC50 (L1210 cells [1]): 430 nM
Ki (L1210 TS [6]; purified TS from L1210 cells, Table 1, read-out: Ki, L1210 TS): 2000 nM
Ki (L1210 TS [6]; reported previously (Jackman et al.), read-out: Ki for TS inhibition): 2000 nM
Vmax (rel), Mouse liver FPGS (Mouse liver FPGS [2]): 1.3
k'(rel), Mouse liver FPGS (Mouse liver FPGS [2]): 29

O=C(O)CC[C@H](NC(=O)c1ccc(NCc2ccc3nn[nH]c(=O)c3c2)cc1)C(=O)O [Compound 10, N-[4-(1,2,3-Benzotriazin-4(3H)-on-6-yl)methyl] aminobenzoyl-L-glutamic Acid]
difference in IC50 with and without dThd compared with 1, 2 and 3 (L1210 cells [7]; L1210 cells): comparable to that reported for 1 and 3, but much lower than that reported for 2
potency against cultured cells relative to 2-desamino-5,8-dideazafolate (L1210 cells [7]; L1210 cells, 10 versus 3): comparable
difference in IC50 with and without dThd (L1210 cells [7]; L1210 cells, dThd 0.84 versus 0.42 μM): twofold
IC50 (L1210 cells [7]; 10 μM dThd (footnote e), read-out: IC50, L1210 cells grown in the presence of dThd): 840 nM
IC50 (L1210 cells [7]; 48 h, RPMI 1640 with 10% nondialyzed fetal calf serum, without dThd, read-out: IC50, L1210 cells): 420 nM
k'(rel) lower than the k'(rel) of 1 or 3 (Mouse liver FPGS [8]; ratio 10 versus 1 or 3): 4.6 -fold
k'(rel) greater than that for CB3717 (Mouse liver FPGS [8]; ratio 10 versus CB3717): twofold
Vmax (rel), Mouse liver FPGS (Mouse liver FPGS [8]; relative to folic acid (1.0)): 1.6
k'(rel), Mouse liver FPGS (Mouse liver FPGS [8]; relative to folic acid (1.0), Km (app) divided into Vmax (rel)): 6.3
increase in TS binding (L1210 TS [9]; 10 versus 2-desamino analogue 3): ca. sixfold
Ki (L1210 TS [9]; purified TS from L1210 cells, Table 1): 330 nM
